Numbers after ± are expanded uncertainties.
What was measured:
[1] = Molar enthalpy of transition or fusion
[2] = Closed cell (Static) method; for Normal melting temperature: Crystal 1

Row | Molar enthalpy of transition or fusion ([1]; Crystal 1, Closed cell (Static) method) | Structure (SMILES) | Molar enthalpy of transition or fusion ([1]; Crystal, DSC) | vapor or sublimation pressure ([2]; 356.86 K, Liquid) | Normal melting temperature [2]
1 |  | CC(C)NC(C)C [diisopropylamine] | 5.43 ± 0.172 kcal/mol |  | 
2 |  | CN(CCO)CCO [N-methyldiethanolamine] |  | 0.2 kPa | -23 °C
3 | 5.43 kcal/mol | CC(O)CNCC(C)O (stereo not given) [N-(2-hydroxypropyl)-2-hydroxy-1-propanamine] |  |  | 42.7 °C

— the NIST ThermoML archive (doi:10.1016/j.fluid.2010.08.026)
